Test results reported in PubChem BioAssay AID1996.
Values after ≈ are worked out from the molar mass of the structure shown.

Settings: buffer; pH 7.4; 200.0 µM
Compound `Nc1nc(SCCO)[nH]c(=O)c1NC(=O)c1ccco1` has a solubility kinetic greater than 0.0444 mg/mL. Compound `O=C1CCC(=O)N1CC(=O)N(c1ccccc1)c1ccccc1` has a solubility kinetic of 0.0404 mg/mL (≈ 131 µM). Work on `Cc1cc2oc(=O)cc(CN3CCCCC3)c2cc1C` yielded a solubility kinetic of less than 0.0006 mg/mL. Work on `CC1CCCCC12NC(=O)N(CC(=O)N1CCN(c3ccccc3)CC1)C2=O` (stereo not given) yielded a solubility kinetic greater than 0.0577 mg/mL. For `CCOC(=O)c1c(C)nsc1NC(=O)C1CCCCC1`, the solubility kinetic was 0.0083 mg/mL (≈ 28 µM). For `CCN(C(=O)Cn1c(=O)oc2ccccc21)c1ccc(C)c(C)c1`, the solubility kinetic was 0.0117 mg/mL (≈ 36.1 µM). `Cc1sc2ncnc(N)c2c1C` showed a solubility kinetic greater than 0.0269 mg/mL. `COc1cccc(NC(=O)N2CCCC2C(=O)NC2CCCC2)c1` (stereo not given) gave a solubility kinetic of 0.0459 mg/mL (≈ 138 µM). `CCCN(C(=O)CCc1ccc(OC)cc1)c1c(N)n(Cc2ccccc2)c(=O)[nH]c1=O` showed a solubility kinetic of 0.0089 mg/mL (≈ 20.4 µM). With `CCOc1ncccc1C(=O)OCC(=O)NCc1cccs1` the solubility kinetic was greater than 0.0481 mg/mL. `O=C(c1ccc(N2CCOCC2)c([N+](=O)[O-])c1)N1CCCCC1` gave a solubility kinetic greater than 0.0479 mg/mL. In the case of `CCc1ccc2[nH]c(C)c(CN3CCCCCC3)c(=O)c2c1`, the solubility kinetic is reported as greater than 0.0448 mg/mL. With `O=C(Cn1cc(C(F)(F)F)ccc1=O)NCc1ccc(F)cc1` the solubility kinetic was greater than 0.0492 mg/mL. For `Nc1c(C(=O)N2CCCC2)sc2nc(-c3ccccc3)ccc12`, the solubility kinetic was 0.0021 mg/mL (≈ 6.49 µM). With `COc1cnc(-c2cccc(C(F)(F)F)c2)nc1OC` the solubility kinetic was less than 0.0003 mg/mL. In the case of `COc1ccc(NC(=O)COC(C)=O)cc1OC`, the solubility kinetic is reported as greater than 0.038 mg/mL. Compound `Cc1ccc2[nH]c(=O)c3cc(C(=O)NCCC(C)C)sc3c2c1` has a solubility kinetic of less than 0.0004 mg/mL. `CC(=O)Nc1ccc(SCC(=O)NC(=O)c2ccc(S(=O)(=O)N(C)C)cc2)cc1` showed a solubility kinetic greater than 0.0653 mg/mL. `O=C(NCCCn1ccnc1)c1ccccc1Br` showed a solubility kinetic greater than 0.0462 mg/mL. Work on `COCCNc1nc(N)c([N+](=O)[O-])c(Nc2ccc(F)cc2)n1` yielded a solubility kinetic of 0.0009 mg/mL (≈ 2.79 µM). For `NS(=O)(=O)c1ccc(NC(=O)c2cccc(Cl)c2)cc1`, the solubility kinetic was 0.01 mg/mL (≈ 32.2 µM). Work on `O=C(NC1CCN(C(=O)NCc2ccccc2)CC1)c1ccc(F)cc1` yielded a solubility kinetic of 0.0093 mg/mL (≈ 26.2 µM). Work on `COc1ccc(OC)c(NC(=O)c2ccc3c(c2)OCO3)c1` yielded a solubility kinetic of 0.0047 mg/mL (≈ 15.6 µM). Work on `C=CCn1c(NCc2ccccc2O)nc2ccccc21` yielded a solubility kinetic of 0.0024 mg/mL (≈ 8.59 µM). In the case of `CC(=O)c1ccc(S(=O)(=O)N2CCNC(=O)C2)cc1`, the solubility kinetic is reported as greater than 0.0423 mg/mL. `CN1CCN(C(=O)c2cc3sc4ccccc4c3s2)CC1` gave a solubility kinetic greater than 0.0475 mg/mL. For `CC(C)N(Cc1ccccc1)C(=S)Nc1ccc(F)cc1`, the solubility kinetic was 0.0451 mg/mL (≈ 149 µM). Work on `CCn1cc(S(=O)(=O)NCCc2ccc(F)cc2)cn1` yielded a solubility kinetic greater than 0.0446 mg/mL. In the case of `O=C(NC1CCCCC1)C(=S)NCCc1ccccc1`, the solubility kinetic is reported as 0.0014 mg/mL (≈ 4.82 µM). For `CCn1c(O)c(C=NCCN2CCOCC2)c(=O)[nH]c1=S`, the solubility kinetic was greater than 0.0469 mg/mL. For `O=C(CCN1CCN(c2ccccc2)CC1)Nc1ccccc1`, the solubility kinetic was 0.0409 mg/mL (≈ 132 µM). Compound `COC(=O)Nc1nc(-c2ccc(F)cc2)c(C)s1` has a solubility kinetic of 0.0022 mg/mL (≈ 8.26 µM). With `CCOc1ccc(Br)cc1C(=S)N1CCCC1` the solubility kinetic was 0.0062 mg/mL (≈ 19.7 µM). `CCOC(=O)c1cccc(NC(=O)CCc2ccccc2)c1` showed a solubility kinetic of 0.0331 mg/mL (≈ 111 µM). `CC(=O)c1c(C)oc2ccc(NS(=O)(=O)c3ccccc3)cc12` showed a solubility kinetic of less than 0.0007 mg/mL. `CCCCCC(=O)NC(=S)Nc1cccc(-c2nc3ncccc3o2)c1` showed a solubility kinetic of less than 0.0002 mg/mL. `COc1ccc2oc(=O)c(C(=O)NCc3ccc(C)cc3)cc2c1` gave a solubility kinetic of less than 0.0007 mg/mL. Compound `COc1cc(C(F)(F)F)c(C(=O)NCc2cccc(Cl)c2)cn1` has a solubility kinetic of 0.0053 mg/mL (≈ 15.4 µM). Work on `CC(C)CNc1nc(N)c([N+](=O)[O-])c(NC2CCCCC2)n1` yielded a solubility kinetic of less than 0.0001 mg/mL. Compound `O=C(COC(=O)C1CC1)NC(=O)c1ccccc1` has a solubility kinetic greater than 0.0371 mg/mL. In the case of `COCC(C)N1CC(O)=C(c2nc(-c3ccc(Cl)cc3)cs2)C1=N` (stereo not given), the solubility kinetic is reported as 0.0013 mg/mL (≈ 3.57 µM). Work on `O=C(CNC(=O)c1ccco1)NNC(=O)c1ccc(Br)cc1` yielded a solubility kinetic greater than 0.0549 mg/mL. `Cc1ccc(SC(C)C(=O)NC(N)=O)c(C)c1` (stereo not given) gave a solubility kinetic of 0.0077 mg/mL (≈ 30.5 µM). Work on `O=C(Nc1cccnc1)c1ccc([N+](=O)[O-])s1` yielded a solubility kinetic of 0.0099 mg/mL (≈ 39.7 µM). For `CCC(C)NS(=O)(=O)c1ccc(NC(=O)c2cccs2)cc1` (stereo not given), the solubility kinetic was 0.0026 mg/mL (≈ 7.68 µM). `COc1ccc(C(=O)CCN2CCC(C)CC2)cc1.Cl` showed a solubility kinetic greater than 0.0447 mg/mL. Compound `CC(C)(C)NC(=O)CN(Cc1ccccc1)S(=O)(=O)c1ccccc1` has a solubility kinetic of 0.0387 mg/mL (≈ 107 µM). `CCOC(=O)NC(N(O)c1cccc(Cl)c1)C(Cl)(Cl)Cl` (stereo not given) gave a solubility kinetic of 0.0371 mg/mL (≈ 102 µM). In the case of `C=CCn1c(P(C)(=O)[O-])nc2ccccc21.[K+]`, the solubility kinetic is reported as greater than 0.0411 mg/mL. For `c1csc(-c2noc(CN3CCOCC3)n2)c1`, the solubility kinetic was 0.0366 mg/mL (≈ 146 µM). `CC(C)CC(=O)Nc1cc2c3c(c1)CCN3C(=O)CC2` gave a solubility kinetic greater than 0.0409 mg/mL. Work on `COC(=O)c1ccc(NC(=O)Nc2ccccc2C)cc1` yielded a solubility kinetic of 0.0043 mg/mL (≈ 15.1 µM). Work on `CCOC(=O)Cn1cnc2scc(-c3ccc(C)c(C)c3)c2c1=O` yielded a solubility kinetic of 0.0225 mg/mL (≈ 65.7 µM). `Cc1ccc(-c2cc(NC(=O)c3ccccc3)on2)cc1` showed a solubility kinetic of less than 0.0003 mg/mL. `CC1CC(C)CN(S(=O)(=O)c2cccc3nonc23)C1` (stereo not given) showed a solubility kinetic of 0.0055 mg/mL (≈ 18.6 µM). For `CC(NCc1cccc(S(=O)(=O)N(C)C)c1)c1ccc(F)cc1` (stereo not given), the solubility kinetic was 0.0371 mg/mL (≈ 110 µM). `COc1ccc(CCn2c([S-])nc3ccccc3c2=O)cc1.[Na+]` gave a solubility kinetic of 0.0015 mg/mL. Work on `COc1ccc(CC(=O)Oc2ccccc2[N+](=O)[O-])cc1` yielded a solubility kinetic of 0.0142 mg/mL (≈ 49.4 µM). With `Cc1ccc(NC(=O)CN2CCN(Cc3ccccc3)CC2)cc1F` the solubility kinetic was 0.0428 mg/mL (≈ 125 µM). Compound `COc1cccc(OC)c1/C=C/C(=O)NC1CCCCC1` has a solubility kinetic of 0.0058 mg/mL (≈ 20 µM).
